US5539123A, “Low molecular weight thiocarbamates as inhibitors of elastase, uses and method of synthesis” (University of Kentucky Research Foundation, priority 1994, dated 1996)

System: Zymosan Induced Inflammation
Experiment: Zymosan-induced paw inflammation (arthritis) in rats, percent volume increase of the paw
Format: in vivo, rat
Conditions: for % Oedema Volume change: 3.6 × 10^-4 mg/g IP vs control; for % Volume Increase, Mean of 3 experiments / % Volume Increase: 3.6 × 10^-4 mg/g IP
Text: A reversible arthritic condition was induced according to known procedures for the Zymosan-induced arthritis (See J. P. Tarayre, A. Delphon, et al., Pharmacological studies in zymosan inflammation in rats and mice, I: Zymosan-induced paw edema in rat and mice, Pharmacological Research, 21, (#4) 375-384 (1989); Takuo Sato, Yoshitaka Ino, et al., Inhibitory effects of a novel synthetic protease inhibitor (FUT-175), on the paw edema in rats and Zymosan-induced compliment activation in vitro, Japan J. Pharmacol., 42,587-589 (1986); David K. Gremmell, et al., Comparative effects of drugs on four paw edema models on the rat, Agents and Actions 4, (#1) 107-116 (1979); and D. C. Keystone, et al., Zymosan-induced arthritis: A model of chronic proliferative arthritis following activation of the alternative pathway of compliment, Arthritis and Rheumatism 20 (#7) 1396-1401 (1977)).
Each rat (250 g each) was kept in a restraining cage with light ether anesthesia until the administration of the drug. The procedure involves the intramuscular (IM) injection of 1 mg of Zymosan in 50 μL (microliters) of normal saline in the pad of a hind paw of the rat. Swelling becomes evident within 20 minutes and reaches a maximum within 1.5 hours. The swelling disappears after 24 hours. In the Figures the reversal to normal size of the paw within 24 hours is not shown. The degree of swelling is measured by a water displacement method and the percent (%) of volume increase of the paw is plotted against time (see J. P. Tarayre, A. Delphon, et al., Pharmacological studies in zymosan inflammation in rats and mice. I: Zymosan-induced paw edema in rat and mice, Pharmaco-logical Research, 21, (#4) 375-384 (1989); Takuo Sato, Yoshitaka Ino, et al., Inhibitory effects of a novel synthetic protease inhibitor (FUT-175), on the paw edema in rats and Zymosan-induced compliment activation in vitro, Japan J. Pharmacol., 42, 587-589 (1986)).
Control was conducted by injecting I.P. 100 μl of propylene glycol (the vehicle) 15 min. prior to Zymosan administration. […] Data from tables 1 and 1a are plotted in FIGS. 1 and 1a respectively.
In the experimental procedure the drug [PC-16, […] (FIG. 2) or 90 μg/rat (FIG. 3)] is dissolved in 100 μL of propylene glycol and is injected IP to the rats. Fifteen minutes later the Zymosan (1mg/50 μL of normal saline) solution is injected IM into the paw of the rats. The degree of swelling is subsequently measured at various time intervals for a period of 24 hours and is reported up to 4 hours.

`CCCCNC(=O)Sc1nnnn1-c1ccccc1` [PC-16] was tested, and the “percent volume increase of rat paw” value (36 μg/kg IP 15 min prior to Zymosan, 1.5 hour, control 60%) was 20%, the “swelling of rat paw” value (360 μg/kg IP 15 min prior to Zymosan) was “practically no swelling” and the “% Oedema Volume change” value (10 min) was -85.0%. The “% Oedema Volume change” value (20 min) was -94.4%, the “% Oedema Volume change” value (30 min) was -94.2% and the “% Oedema Volume change” value (40 min) was -94.7%. The “% Oedema Volume change” value (50 min) was -95.1%, the “% Oedema Volume change” value (60 min) was -94.9% and the “% Oedema Volume change” value (65 min) was -94.8%. For the same molecule, the “% Oedema Volume change” value (70 min) was -94.6%, the “% Oedema Volume change” value (80 min) was -93.8% and the “% Oedema Volume change” value (95 min) was -94.0%. The “% Oedema Volume change” value (100 min) was -94.3%, the “% Oedema Volume change” value (105 min) was -94.1% and the “% Oedema Volume change” value (115 min) was -93.7%. The “% Oedema Volume change” value (120 min) was -93.3%, the “% Oedema Volume change” value (130 min) was -94.1% and the “% Oedema Volume change” value (135 min) was -93.2%. For the same molecule, the “% Oedema Volume change” value (145 min) was -92.6%, the “% Oedema Volume change” value (150 min) was -91.9% and the “% Oedema Volume change” value (160 min) was -91.6%. The “% Oedema Volume change” value (175 min) was -91.5%, the “% Oedema Volume change” value (190 min) was -91.9% and the “% Oedema Volume change” value (200 min) was -91.7%. The “% Oedema Volume change” value (205 min) was -91.3%, the “% Oedema Volume change” value (210 min) was -90.7% and the “% Oedema Volume change” value (220 min) was -90.6%. The “% Oedema Volume change” value (225 min) was -89.8%, the “% Oedema Volume change” value (240 min) was -90.9% and the “% Volume Increase, Mean of 3 experiments” value (0 min) was 0.00%. For the same molecule, the “% Volume Increase, Mean of 3 experiments” value (5 min) was 0.89%, the “% Volume Increase, Mean of 3 experiments” value (10 min) was 1.43% and the “% Volume Increase, Mean of 3 experiments” value (15 min) was 1.43%. The “% Volume Increase, Mean of 3 experiments” value (20 min) was 1.61%, the “% Volume Increase, Mean of 3 experiments” value (30 min) was 2.19% and the “% Volume Increase, Mean of 3 experiments” value (40 min) was 2.37%. The “% Volume Increase, Mean of 3 experiments” value (45 min) was 2.00%, the “% Volume Increase, Mean of 3 experiments” value (50 min) was 2.37% and the “% Volume Increase, Mean of 3 experiments” value (55 min) was 2.92%. The “% Volume Increase, Mean of 3 experiments” value (60 min) was 2.92%, the “% Volume Increase” value (65 min) was 2.92% and the “% Volume Increase” value (70 min) was 3.13%. The “% Volume Increase, Mean of 3 experiments” value (75 min) was 3.34%, the “% Volume Increase, Mean of 3 experiments” value (80 min) was 3.52% and the “% Volume Increase, Mean of 3 experiments” value (85 min) was 3.52%. The “% Volume Increase, Mean of 3 experiments” value (90 min) was 3.52%, the “% Volume Increase” value (95 min) was 3.52% and the “% Volume Increase, Mean of 3 experiments” value (100 min) was 3.33%. The “% Volume Increase” value (105 min) was 3.49%, the “% Volume Increase, Mean of 3 experiments” value (110 min) was 3.65% and the “% Volume Increase” value (115 min) was 3.78%. For the same molecule, the “% Volume Increase, Mean of 3 experiments” value (120 min) was 3.90%, the “% Volume Increase, Mean of 3 experiments” value (125 min) was 3.71% and the “% Volume Increase, Mean of 3 experiments” value (130 min) was 3.35%. The “% Volume Increase” value (135 min) was 3.53%, the “% Volume Increase, Mean of 3 experiments” value (145 min) was 3.71% and the “% Volume Increase, Mean of 3 experiments” value (150 min) was 3.90%. The “% Volume Increase, Mean of 3 experiments” value (160 min) was 3.90%, the “% Volume Increase, Mean of 3 experiments” value (170 min) was 3.52% and the “% Volume Increase” value (175 min) was 3.70%. The “% Volume Increase, Mean of 3 experiments” value (180 min) was 3.88%, the “% Volume Increase, Mean of 3 experiments” value (190 min) was 3.34% and the “% Volume Increase” value (200 min) was 3.41%.
